How the values were obtained:
ryegrass, Italian = assay: Test C preemergence; assay type: in vivo, Lolium multiflorum; conditions: preemergence; for Plant response rating, Ryegrass, Italian: 125 g ai/ha, scale 0 to 100, 0 = no effect, 100 = complete control
Summary of the method: (§1)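 In this greenhouse assay, seeded soil (loam plus sand) or emerged seedlings in peat-vermiculite medium were treated with formulated compound. Roughly two weeks later (13–15 days), each species was scored visually relative to controls, from 0 for no effect to 100 for complete control.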

barnyardgrass [1] = assay: Test B flood; assay type: in vivo, Echinochloa crus-galli; conditions: 250 g ai/ha, visual rating on 0 to 100 scale (0 no effect, 100 complete control), 13 to 15 days
Summary of the method: (§2)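 Visual ratings (0 = no effect, 100 = complete control) versus untreated controls were taken 13–15 days after treatment of greenhouse plants. Treatment was added to paddy water held at 3 cm depth on 2-leaf-stage seedlings.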

rice = assay: Test B flood; assay type: in vivo, Oryza sativa; conditions: 250 g ai/ha, visual rating on 0 to 100 scale (0 no effect, 100 complete control), 13 to 15 days
Summary of the method: as §2

morningglory = assay: Test C preemergence; assay type: in vivo, Ipomoea coccinea; conditions: preemergence; for Plant response rating, Morningglory: 125 g ai/ha, scale 0 to 100, 0 = no effect, 100 = complete control
Summary of the method: as §1

crabgrass, large = assay: Test C preemergence; assay type: in vivo, Digitaria sanguinalis; conditions: preemergence; for Plant response rating, Crabgrass, Large: 125 g ai/ha, scale 0 to 100, 0 = no effect, 100 = complete control
Summary of the method: as §1

barnyardgrass [2] = assay: Test A postemergence; assay type: in vivo, Echinochloa crus-galli
Summary of the method: (§3)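 Visual injury rating, 0–100 (0 no effect, 100 complete control), vs untreated controls ~10 days after treatment in greenhouse. Pre: directed soil spray on seeded loam/sand. Post: 2–10 cm plants, 1–2 leaf stage. Formulation: non-phytotoxic solvent mix + surfactant.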

velvetleaf = assay: Test A postemergence; assay type: in vivo, Abutilon theophrasti; conditions: Postemergence
Summary of the method: as §3

pigweed [3] = assay: Test A preemergence; assay type: in vivo, Amaranthus retroflexus; conditions: preemergence; for Pigweed plant response rating (0 to 100 scale): 125 g ai/ha, visual injury approx. 10 days after treatment; for Pigweed plant response rating: 500 g ai/ha, visual injury after approx. 10 days, 0 to 100 scale (0 no effect, 100 complete control)
Summary of the method: as §3

foxtail, giant = assay: Test A postemergence; assay type: in vivo, Setaria faberii
Summary of the method: as §3

pigweed [4] = assay: Test C preemergence; assay type: in vivo, Amaranthus retroflexus; conditions: preemergence; for Plant response rating, Pigweed: 125 g ai/ha, scale 0 to 100, 0 = no effect, 100 = complete control
Summary of the method: as §1

blackgrass = assay: Test C preemergence; assay type: in vivo, Alopecurus myosuroides; conditions: preemergence; for Plant response rating, Blackgrass: 125 g ai/ha, scale 0 to 100, 0 = no effect, 100 = complete control
Summary of the method: as §1

johnsongrass = assay: Test C preemergence; assay type: in vivo, Sorghum halepense; conditions: preemergence; for Plant response rating, Johnsongrass: 125 g ai/ha, scale 0 to 100, 0 = no effect, 100 = complete control
Summary of the method: as §1

barnyardgrass [5] = assay: Test A preemergence; assay type: in vivo, Echinochloa crus-galli; conditions: preemergence; for Barnyardgrass plant response rating (0 to 100 scale, 0 is no effect, 100 is complete control): 125 g ai/ha, visual injury approx. 10 days after treatment; for Barnyardgrass plant response rating: 500 g ai/ha, visual injury after approx. 10 days, 0 to 100 scale (0 no effect, 100 complete control)
Summary of the method: as §3

corn = assay: Test A postemergence; assay type: in vivo, Zea mays
Summary of the method: as §3

[6] = 31 g ai/ha, visual rating, scale 0 to 100 (0 no effect, 100 complete control), 13 to 15 days
[7] = 62 g ai/ha, scale 0 to 100 (0 no effect, 100 complete control), 13 to 15 days
[8] = 250 g ai/ha, scale 0 to 100, 0 is no effect, 100 is complete control
[9] = Postemergence, 500 g ai/ha, 0 to 100 scale (0 no effect, 100 complete control)
[10] = postemergence, 125 g ai/ha, about 10 days, visual rating on 0 to 100 scale (0 no effect, 100 complete control)
[11] = 125 g ai/ha, 0 to 100 scale, 0 no effect, 100 complete control
[12] = 500 g ai/ha, 0 to 100 scale (0 no effect, 100 complete control)

In the case of `CCNC(=O)c1cc(CC)n(Cc2ccnc(C(F)(F)F)c2)n1` [Compound 196], the “Ryegrass, Italian plant response rating” value (ryegrass, Italian; [6]) is reported as 30, the “Ryegrass, Italian plant response rating” value (ryegrass, Italian; [7]) is reported as 85 and the “Plant response rating, Ryegrass, Italian” value (ryegrass, Italian; 13 to 15 days) is reported as 90. For the same compound, the “Ryegrass, Italian plant response rating” value (ryegrass, Italian; [8]) was 90, the “Plant response rating, Barnyardgrass” value (barnyardgrass [1]) was 30 and the “Plant response rating, Rice” value (rice) was 20. For the same compound, the “Morningglory plant response rating” value (morningglory; [6]) was 98, the “Morningglory plant response rating” value (morningglory; [7]) was 98 and the “Plant response rating, Morningglory” value (morningglory; 13 to 15 days) was 100. The “Morningglory plant response rating” value (morningglory; [8]) was 100, the “Crabgrass, Large plant response rating” value (crabgrass, large; [6]) was 98 and the “Crabgrass, Large plant response rating” value (crabgrass, large; [7]) was 98. The “Plant response rating, Crabgrass, Large” value (crabgrass, large; 13 to 15 days) was 100, the “Crabgrass, Large plant response rating” value (crabgrass, large; [8]) was 100 and the “Barnyardgrass plant response rating” value (barnyardgrass [2]; [9]) was 90. For the same compound, the “Barnyardgrass plant response rating” value (barnyardgrass [2]; [10]) was 90, the “Velvetleaf plant response rating” value (velvetleaf; [11]) was 80 and the “Velvetleaf plant response rating” value (velvetleaf; [12]) was 100. For the same compound, the “Pigweed plant response rating (0 to 100 scale)” value (pigweed [3]) was 100, the “Pigweed plant response rating” value (pigweed [3]) was 100 and the “Foxtail, Giant plant response rating” value (foxtail, giant; [9]) was 100. For the same compound, the “Foxtail, Giant plant response rating” value (foxtail, giant; [10]) was 90, the “Pigweed plant response rating” value (pigweed [4]; [6]) was 98 and the “Pigweed plant response rating” value (pigweed [4]; [7]) was 98. For the same compound, the “Plant response rating, Pigweed” value (pigweed [4]; 13 to 15 days) was 100, the “Pigweed plant response rating” value (pigweed [4]; [8]) was 100 and the “Blackgrass plant response rating” value (blackgrass; [6]) was 85. For the same compound, the “Blackgrass plant response rating” value (blackgrass; [7]) was 90, the “Plant response rating, Blackgrass” value (blackgrass; 13 to 15 days) was 90 and the “Blackgrass plant response rating” value (blackgrass; [8]) was 90. For the same compound, the “Johnsongrass plant response rating” value (johnsongrass; [6]) was 55, the “Johnsongrass plant response rating” value (johnsongrass; [7]) was 85 and the “Plant response rating, Johnsongrass” value (johnsongrass; 13 to 15 days) was 100. For the same compound, the “Johnsongrass plant response rating” value (johnsongrass; [8]) was 100, the “Barnyardgrass plant response rating (0 to 100 scale, 0 is no effect, 100 is complete control)” value (barnyardgrass [5]) was 90 and the “Barnyardgrass plant response rating” value (barnyardgrass [5]) was 100. The “Corn plant response rating” value (corn; [9]) was 90 and the “Corn plant response rating” value (corn; [10]) was 80.

In the case of `Cc1cc(C(=O)NC(C)C)nn1Cc1ccnc(C(F)(F)F)c1` [Compound 197], the “Ryegrass, Italian plant response rating” value (ryegrass, Italian; [6]) is reported as 15, the “Ryegrass, Italian plant response rating” value (ryegrass, Italian; [7]) is reported as 35 and the “Plant response rating, Ryegrass, Italian” value (ryegrass, Italian; 13 to 15 days) is reported as 85. The “Ryegrass, Italian plant response rating” value (ryegrass, Italian; [8]) was 90, the “Plant response rating, Barnyardgrass” value (barnyardgrass [1]) was 10 and the “Plant response rating, Rice” value (rice) was 10. The “Morningglory plant response rating” value (morningglory; [6]) was 75, the “Morningglory plant response rating” value (morningglory; [7]) was 100 and the “Plant response rating, Morningglory” value (morningglory; 13 to 15 days) was 100. For the same compound, the “Morningglory plant response rating” value (morningglory; [8]) was 100, the “Crabgrass, Large plant response rating” value (crabgrass, large; [6]) was 100 and the “Crabgrass, Large plant response rating” value (crabgrass, large; [7]) was 100. The “Plant response rating, Crabgrass, Large” value (crabgrass, large; 13 to 15 days) was 100, the “Crabgrass, Large plant response rating” value (crabgrass, large; [8]) was 100 and the “Barnyardgrass plant response rating” value (barnyardgrass [2]; [9]) was 100. For the same compound, the “Barnyardgrass plant response rating” value (barnyardgrass [2]; [10]) was 80, the “Velvetleaf plant response rating” value (velvetleaf; [11]) was 30 and the “Velvetleaf plant response rating” value (velvetleaf; [12]) was 80. The “Pigweed plant response rating (0 to 100 scale)” value (pigweed [3]) was 100, the “Pigweed plant response rating” value (pigweed [3]) was 100 and the “Foxtail, Giant plant response rating” value (foxtail, giant; [9]) was 90. The “Foxtail, Giant plant response rating” value (foxtail, giant; [10]) was 80, the “Pigweed plant response rating” value (pigweed [4]; [6]) was 100 and the “Pigweed plant response rating” value (pigweed [4]; [7]) was 100. For the same compound, the “Plant response rating, Pigweed” value (pigweed [4]; 13 to 15 days) was 100, the “Pigweed plant response rating” value (pigweed [4]; [8]) was 100 and the “Blackgrass plant response rating” value (blackgrass; [6]) was 0. The “Blackgrass plant response rating” value (blackgrass; [7]) was 85, the “Plant response rating, Blackgrass” value (blackgrass; 13 to 15 days) was 90 and the “Blackgrass plant response rating” value (blackgrass; [8]) was 90. The “Johnsongrass plant response rating” value (johnsongrass; [6]) was 10, the “Johnsongrass plant response rating” value (johnsongrass; [7]) was 40 and the “Plant response rating, Johnsongrass” value (johnsongrass; 13 to 15 days) was 80. The “Johnsongrass plant response rating” value (johnsongrass; [8]) was 85, the “Barnyardgrass plant response rating (0 to 100 scale, 0 is no effect, 100 is complete control)” value (barnyardgrass [5]) was 90 and the “Barnyardgrass plant response rating” value (barnyardgrass [5]) was 100. For the same compound, the “Corn plant response rating” value (corn; [9]) was 90 and the “Corn plant response rating” value (corn; [10]) was 30.

In the case of `CCCNC(=O)c1cc(CCC)n(Cc2cc(C(F)(F)F)nn2C)n1` [Compound 198], the “Ryegrass, Italian plant response rating” value (ryegrass, Italian; [6]) is reported as 25, the “Ryegrass, Italian plant response rating” value (ryegrass, Italian; [7]) is reported as 70 and the “Plant response rating, Ryegrass, Italian” value (ryegrass, Italian; 13 to 15 days) is reported as 90. For the same compound, the “Ryegrass, Italian plant response rating” value (ryegrass, Italian; [8]) was 90, the “Plant response rating, Barnyardgrass” value (barnyardgrass [1]) was 60 and the “Plant response rating, Rice” value (rice) was 60. For the same compound, the “Morningglory plant response rating” value (morningglory; [6]) was 95, the “Morningglory plant response rating” value (morningglory; [7]) was 100 and the “Plant response rating, Morningglory” value (morningglory; 13 to 15 days) was 100. For the same compound, the “Morningglory plant response rating” value (morningglory; [8]) was 100, the “Crabgrass, Large plant response rating” value (crabgrass, large; [6]) was 98 and the “Crabgrass, Large plant response rating” value (crabgrass, large; [7]) was 100. For the same compound, the “Plant response rating, Crabgrass, Large” value (crabgrass, large; 13 to 15 days) was 100, the “Crabgrass, Large plant response rating” value (crabgrass, large; [8]) was 100 and the “Barnyardgrass plant response rating” value (barnyardgrass [2]; [9]) was 100. For the same compound, the “Barnyardgrass plant response rating” value (barnyardgrass [2]; [10]) was 90, the “Velvetleaf plant response rating” value (velvetleaf; [11]) was 30 and the “Velvetleaf plant response rating” value (velvetleaf; [12]) was 100. The “Pigweed plant response rating (0 to 100 scale)” value (pigweed [3]) was 100, the “Pigweed plant response rating” value (pigweed [3]) was 100 and the “Foxtail, Giant plant response rating” value (foxtail, giant; [9]) was 100. The “Foxtail, Giant plant response rating” value (foxtail, giant; [10]) was 90, the “Pigweed plant response rating” value (pigweed [4]; [6]) was 100 and the “Pigweed plant response rating” value (pigweed [4]; [7]) was 100. For the same compound, the “Plant response rating, Pigweed” value (pigweed [4]; 13 to 15 days) was 100, the “Pigweed plant response rating” value (pigweed [4]; [8]) was 100 and the “Blackgrass plant response rating” value (blackgrass; [6]) was 85. For the same compound, the “Blackgrass plant response rating” value (blackgrass; [7]) was 90, the “Plant response rating, Blackgrass” value (blackgrass; 13 to 15 days) was 90 and the “Blackgrass plant response rating” value (blackgrass; [8]) was 90. For the same compound, the “Johnsongrass plant response rating” value (johnsongrass; [6]) was 25, the “Johnsongrass plant response rating” value (johnsongrass; [7]) was 80 and the “Plant response rating, Johnsongrass” value (johnsongrass; 13 to 15 days) was 100. For the same compound, the “Johnsongrass plant response rating” value (johnsongrass; [8]) was 100, the “Barnyardgrass plant response rating (0 to 100 scale, 0 is no effect, 100 is complete control)” value (barnyardgrass [5]) was 100 and the “Barnyardgrass plant response rating” value (barnyardgrass [5]) was 100. For the same compound, the “Corn plant response rating” value (corn; [9]) was 90 and the “Corn plant response rating” value (corn; [10]) was 90.

Source: US20150105252A1, “SUBSTITUTED PYRAZOLES AS HERBICIDES” (E I DU PONT DE NEMOURS AND COMPANY, priority 2013, published 2015)
